In this experiment the test system is CRABP-2 expression of fibroblasts. As to the kind of experiment: CRABP-2 protein expression in fibroblasts (Western blot, densitometric scanning). It is filed as cell-based, Human. As to conditions: for CRABP-2 levels: 4 h anise pre-treatment, 48 h incubation, +/− SD of triplicates; for As % of control: control as 100%. As to the method: Dried […] seeds (Pimpinella anisum) was purchased from local markets and powdered in a dry grinder. The alcoholic extract of anise seed was prepared by stirring 1 gram of the dry anise seed powder in 10 ml of ethanol from the list of solvents given below for 4 to 24 hrs at room temperature. The extracts were clarified by filtration and centrifugation, to obtain a 10% extract of anise seed in the particular solvent. Human adult fibroblasts obtained from sun-protected inner arm of 25-30 year […] volunteer were used in this. Cells were grown in 1:1 DMEM/Hams F12 media containing 10% FBS, maintained at 37C in a 5% CO2 atmosphere under normal atmospheric oxygen tension. Third passage adult fibroblasts were grown in DMEM media with 10% FBS in 12-well plates at a seeding density of 40,000 cells/ml/well. The cells at 80% confluence were rinsed in serum free and phenol red free (PRF) DMEM media twice. Pre-treatment with anise seed extract for 4 hours was conducted and then dosed with retinoids and was incubated for 48 hours. After the incubation, the wells were washed twice with 1×PBS and the cell monolayer was harvested in 100 μl cell lysis buffer (contains 1×PBS, 1% TritonX, 0.5% sodium deoxycholate, 0.1% SDS containing protease inhibitor (10 mg/ml PMSF in isopropanol, 10 μl/ml). The suspension was spun at 14000 rpm for 10 minutes, the supernatant collected and an aliquot of this supernatant was used for protein quantification. Protein concentration was determined using Pierce protein kit. The remainder of 100 μl supernatant (cell lysate) was denatured in a mixture of 40 μl sample buffer (NOVEX) and 0.5% Beta mercaptoethanol (BME) and by boiling the sample for 5 minutes. Equal amount of protein was then loaded onto 16% Tris-glycine gels for protein analysis by SDS page and Western Immuno-blotting for CRABP-2 protein expression. To measure the levels of CRABP-2 in the fibroblasts prepared as described above, the cell supernatant was re-suspended in 4× sample buffer and 0.5% BME, boiled for 5 minutes and used for western blotting. Equal amounts of protein were loaded onto 16% Tris-glycine gels for CRABP-2 protein analysis by SDS page and Western Immuno-blotting. The gels were transferred to nitrocellulose blots and Western Blotting was carried out using monoclonal antibodies to CRABP-2 according to standard procedures. The CRABP-2 protein band was visualized in the Western Blots using the chemiluminescence system obtained from Santa Cruz Biotechnology (SantaCruz, Calif.). The bands in the film were quantitated by densitometric scanning, the data from triplicate samples were calculated as % of control and expressed in the following tables as % increase over control (with control as 100%) +/−SD of triplicates.

Setting [1] is: Example 1: 100 nM retinoids and 0.1 μl of a 10% anise seed extract.
The mark [2] stands for this setting: Example 2: 100 nM retinoids and 1.0 μl of a 10% anise seed extract.
Where [3] appears, read: Example 3: 500 nM retinoids and 0.1 μl of a 10% anise seed extract.
Setting [4] is: Example 4: 500 nM retinoids and 1.0 μl of a 10% anise seed extract.

Regarding `CCCCCCCCCCCCCCCC(=O)OC/C=C(C)/C=C/C=C(C)/C=C/C1=C(C)CCCC1(C)C` [Retinyl Palmitate], the CRABP-2 levels reads like this: under setting [1], 1.12 +/− 0.15; under setting [2], 1.12 +/− 0.15; under setting [3], 0.83 +/− 0.5; under setting [4], 0.83 +/− 0.5. The “As % of control” value by setting is: under setting [1], 262 +/− 37 % of control; under setting [2], 262 +/− 37 % of control; under setting [3], 193 % of control; under setting [4], 193 % of control.

In the case of `CC(=O)OC/C=C(C)/C=C/C=C(C)/C=C/C1=C(C)CCCC1(C)C` [Retinyl acetate], the CRABP-2 levels by setting is: under setting [1], 2.38 +/− 0.81; under setting [2], 2.38 +/− 0.81; under setting [3], 1.02 +/− 0.56; under setting [4], 1.02 +/− 0.56. For the same compound, the “As % of control” value is 553 % of control under setting [1], 553 % of control under setting [2], 237 % of control under setting [3] and 237 % of control under setting [4].

With `CCCCC/C=C\C/C=C\CCCCCCCC(=O)OC/C=C(C)/C=C/C=C(C)/C=C/C1=C(C)CCCC1(C)C` [Retinyl linoleate], the CRABP-2 levels is, setting by setting: under setting [1], 1.23 +/− 0.28; under setting [2], 1.23 +/− 0.28; under setting [3], 0.99 +/− 0.13; under setting [4], 0.99 +/− 0.13. Besides, the “As % of control” value under setting [1] is given as 286 +/− 65 % of control, the “As % of control” value under setting [2] is recorded as 286 +/− 65 % of control, the “As % of control” value under setting [3] was 231 +/− 30 % of control and the “As % of control” value under setting [4] was 231 +/− 30 % of control.

Consider `CC1=C(/C=C/C(C)=C/C=C/C(C)=C/CO)C(C)(C)CCC1` [Retinol], for which the CRABP-2 levels is listed as 1.36 +/− 0.17 under setting [1], 1.36 +/− 0.17 under setting [2], 0.66 +/− 0.19 under setting [3] and 0.66 +/− 0.19 under setting [4]. Further, the “As % of control” value is, setting by setting: under setting [1], 317 +/− 39 % of control; under setting [2], 317 +/− 39 % of control; under setting [3], 154 +/− 44 % of control; under setting [4], 154 +/− 44 % of control.
